Measurements: ChEMBL document CHEMBL3885861, “Open TG-GATES”

Species on record: Rattus norvegicus
Experiment: Open TG-GATES - Regimen: Daily Repeat
Assay type: toxicity, organism-based, Sprague-Dawley
Set-up: regimen Daily Repeat, gender Male, age 6 weeks
Details: in vivo, po, route gavage; for APTT / Bas / Eos / Fbg / Hb / Ht / Lym / MCH / MCHC / Mono / Neu / Plat / RBC / Ret: tissue Blood; for KIDNEY_L / KIDNEY_R / KIDNEY_TOTAL: tissue Kidney; for LIVER: tissue Liver; for ALP / ALT / AST / BUN / CRE / Ca / Cl / DBIL / GLC / IP / K / LDH / Na / PL / RALB / TBIL / TC / TG / TP / gamma-GTP: tissue Plasma
[1] = 0 mg/kg, 72 h, dose level Control, time 3 day
[2] = 0 mg/kg, […], dose level Control, time 7 day
[3] = 0 mg/kg, […], dose level Control, time 14 day
[4] = 0 mg/kg, […], dose level Control, time 28 day
[5] = 3 mg/kg, 72 h, dose level Low, time 3 day
[6] = 3 mg/kg, […], dose level Low, time 7 day
[7] = 3 mg/kg, […], dose level Low, time 14 day
[8] = 3 mg/kg, […], dose level Low, time 28 day

SMILES: O=C(CCCN1CCC(O)(c2ccc(Cl)cc2)CC1)c1ccc(F)cc1 [HALOPERIDOL]
- TERMINAL_BW [1]: 226.4 g
- APTT [1]: 16.5 s
- Bas [1]: 0%
- Eos [1]: 0.2%
- Fbg [1]: 223.2 mg/dL
- Hb [1]: 13.8 g/dL
- Ht [1]: 41.1%
- Lym [1]: 84.4%
- MCH [1]: 21.8 pg
- MCHC [1]: 33.6%
- Mono [1]: 4%
- Neu [1]: 11.4%
- Plat [1]: 119.4 x10_4/uL
- RBC [1]: 632.8 x10_4/ul
- Ret [1]: 7.7%
- KIDNEY_L [1]: 1 g
- KIDNEY_R [1]: 1 g
- KIDNEY_TOTAL [1]: 2 g
- LIVER [1]: 11.1 g
- ALP [1]: 915.2 IU/L
- ALT [1]: 38 IU/L
- AST [1]: 59.6 IU/L
- BUN [1]: 19.2 mg/dL
- CRE [1]: 0.6 mg/dL
- Ca [1]: 11.2 mg/dL
- Cl [1]: 105.8 meq/L
- DBIL [1]: 0 mg/dL
- GLC [1]: 191.2 mg/dL
- IP [1]: 8.4 mg/dL
- K [1]: 4.9 meq/L
- LDH [1]: 91.8 IU/L
- Na [1]: 139.2 meq/L
- PL [1]: 166.2 mg/dL
- RALB [1]: 4 g/dL
- TBIL [1]: 0.2 mg/dL
- TC [1]: 88 mg/dL
- TG [1]: 96.6 mg/dL
- TP [1]: 6 g/dL
- gamma-GTP [1]: 1.6 IU/L
- TERMINAL_BW [2]: 261.8 g
- TERMINAL_BW [3]: 307.2 g
- TERMINAL_BW [4]: 396.3 g
- APTT [2]: 16.9 s
- Bas [2]: 0%
- Eos [2]: 0.8%
- Fbg [2]: 216.4 mg/dL
- Hb [2]: 13.9 g/dL
- Ht [2]: 41.8%
- Lym [2]: 80.4%
- MCH [2]: 21.2 pg
- MCHC [2]: 33.3%
- Mono [2]: 4.8%
- Neu [2]: 14%
- Plat [2]: 104.8 x10_4/uL
- RBC [2]: 658 x10_4/ul
- Ret [2]: 5.8%
- APTT [3]: 16.2 s
- Bas [3]: 0%
- Eos [3]: 0.2%
- Fbg [3]: 224.2 mg/dL
- Hb [3]: 14.6 g/dL
- Ht [3]: 43.8%
- Lym [3]: 78.4%
- MCH [3]: 20.4 pg
- MCHC [3]: 33.3%
- Mono [3]: 5.2%
- Neu [3]: 16.2%
- Plat [3]: 107.4 x10_4/uL
- RBC [3]: 716 x10_4/ul
- Ret [3]: 3.7%
- APTT [4]: 16.6 s
- Bas [4]: 0%
- Eos [4]: 0.8%
- Fbg [4]: 235.8 mg/dL
- Hb [4]: 15.1 g/dL
- Ht [4]: 45.3%
- Lym [4]: 80.8%
- MCH [4]: 19.2 pg
- MCHC [4]: 33.4%
- Mono [4]: 5.8%
- Neu [4]: 12.6%
- Plat [4]: 105.5 x10_4/uL
- RBC [4]: 787.6 x10_4/ul
- Ret [4]: 3%
- KIDNEY_L [2]: 1.1 g
- KIDNEY_R [2]: 1.1 g
- KIDNEY_TOTAL [2]: 2.1 g
- KIDNEY_L [3]: 1.2 g
- KIDNEY_R [3]: 1.2 g
- KIDNEY_TOTAL [3]: 2.4 g
- KIDNEY_L [4]: 1.4 g
- KIDNEY_R [4]: 1.4 g
- KIDNEY_TOTAL [4]: 2.8 g
- LIVER [2]: 12.9 g
- LIVER [3]: 14 g
- LIVER [4]: 16.7 g
- ALP [2]: 874.8 IU/L
- ALT [2]: 33.4 IU/L
- AST [2]: 59.4 IU/L
- BUN [2]: 20.2 mg/dL
- CRE [2]: 0.5 mg/dL
- Ca [2]: 11.2 mg/dL
- Cl [2]: 104.8 meq/L
- DBIL [2]: 0.006 mg/dL
- GLC [2]: 196 mg/dL
- IP [2]: 7.4 mg/dL
- K [2]: 4.6 meq/L
- LDH [2]: 93 IU/L
- Na [2]: 138.8 meq/L
- PL [2]: 169.8 mg/dL
- RALB [2]: 3.9 g/dL
- TBIL [2]: 0.3 mg/dL
- TC [2]: 83 mg/dL
- TG [2]: 134.4 mg/dL
- TP [2]: 5.9 g/dL
- gamma-GTP [2]: 1.8 IU/L
- ALP [3]: 784.8 IU/L
- ALT [3]: 32.6 IU/L
- AST [3]: 62.4 IU/L
- BUN [3]: 21.2 mg/dL
- CRE [3]: 0.5 mg/dL
- Ca [3]: 10.7 mg/dL
- Cl [3]: 106.8 meq/L
- DBIL [3]: 0.01 mg/dL
- GLC [3]: 195.4 mg/dL
- IP [3]: 7.4 mg/dL
- K [3]: 4.8 meq/L
- LDH [3]: 93.2 IU/L
- Na [3]: 138.2 meq/L
- PL [3]: 161.2 mg/dL
- RALB [3]: 3.9 g/dL
- TBIL [3]: 0.3 mg/dL
- TC [3]: 76.2 mg/dL
- TG [3]: 149 mg/dL
- TP [3]: 6.2 g/dL
- gamma-GTP [3]: 1.4 IU/L
- ALP [4]: 558 IU/L
- ALT [4]: 30.4 IU/L
- AST [4]: 58.8 IU/L
- BUN [4]: 22.2 mg/dL
- CRE [4]: 0.6 mg/dL
- Ca [4]: 11.1 mg/dL
- Cl [4]: 105 meq/L
- DBIL [4]: 0.052 mg/dL
- GLC [4]: 177.4 mg/dL
- IP [4]: 7.8 mg/dL
- K [4]: 4.6 meq/L
- LDH [4]: 79.4 IU/L
- Na [4]: 140 meq/L
- PL [4]: 160.8 mg/dL
- RALB [4]: 4.1 g/dL
- TBIL [4]: 0.2 mg/dL
- TC [4]: 75.2 mg/dL
- TG [4]: 176.2 mg/dL
- TP [4]: 6.6 g/dL
- gamma-GTP [4]: 1.6 IU/L
- TERMINAL_BW [5]: 219.6 g
- APTT [5]: 16 s
- Bas [5]: 0%
- Eos [5]: 1.4%
- Fbg [5]: 210 mg/dL
- Hb [5]: 14.1 g/dL
- Ht [5]: 42.1%
- Lym [5]: 75.8%
- MCH [5]: 21.4 pg
- MCHC [5]: 33.5%
- Mono [5]: 5%
- Neu [5]: 17.8%
- Plat [5]: 113.5 x10_4/uL
- RBC [5]: 658.8 x10_4/ul
- Ret [5]: 6.6%
- KIDNEY_L [5]: 0.9 g
- KIDNEY_R [5]: 0.9 g
- KIDNEY_TOTAL [5]: 1.9 g
- LIVER [5]: 10.7 g
- ALP [5]: 995 IU/L
- ALT [5]: 39.6 IU/L
- AST [5]: 62 IU/L
- BUN [5]: 21 mg/dL
- CRE [5]: 0.5 mg/dL
- Ca [5]: 11.3 mg/dL
- Cl [5]: 106.2 meq/L
- DBIL [5]: 0 mg/dL
- GLC [5]: 183.6 mg/dL
- IP [5]: 7.9 mg/dL
- K [5]: 4.8 meq/L
- LDH [5]: 76.4 IU/L
- Na [5]: 138.6 meq/L
- PL [5]: 195.4 mg/dL
- RALB [5]: 4 g/dL
- TBIL [5]: 0.2 mg/dL
- TC [5]: 93.6 mg/dL
- TG [5]: 112 mg/dL
- TP [5]: 6 g/dL
- gamma-GTP [5]: 1.4 IU/L
- TERMINAL_BW [6]: 256.9 g
- TERMINAL_BW [7]: 298.2 g
- TERMINAL_BW [8]: 375.7 g
- APTT [6]: 16.5 s
- Bas [6]: 0%
- Eos [6]: 0.2%
- Fbg [6]: 217 mg/dL
- Hb [6]: 14.3 g/dL
- Ht [6]: 42.9%
- Lym [6]: 79.2%
- MCH [6]: 21.1 pg
- MCHC [6]: 33.4%
- Mono [6]: 4.4%
- Neu [6]: 16.2%
- Plat [6]: 100.7 x10_4/uL
- RBC [6]: 678.4 x10_4/ul
- Ret [6]: 5.1%
- APTT [7]: 17.2 s
- Bas [7]: 0%
- Eos [7]: 0.8%
- Fbg [7]: 226.4 mg/dL
- Hb [7]: 15.1 g/dL
- Ht [7]: 45.1%
- Lym [7]: 76.6%
- MCH [7]: 20.9 pg
- MCHC [7]: 33.6%
- Mono [7]: 5.2%
- Neu [7]: 17.4%
- Plat [7]: 108.9 x10_4/uL
- RBC [7]: 723.2 x10_4/ul
- Ret [7]: 4%
- APTT [8]: 17.3 s
- Bas [8]: 0%
- Eos [8]: 0%
- Fbg [8]: 223.4 mg/dL
- Hb [8]: 15.2 g/dL
- Ht [8]: 45.4%
- Lym [8]: 84.4%
- MCH [8]: 19.4 pg
- MCHC [8]: 33.5%
- Mono [8]: 2.4%
- Neu [8]: 13.2%
- Plat [8]: 99.3 x10_4/uL
- RBC [8]: 782.4 x10_4/ul
- Ret [8]: 2.3%
- KIDNEY_L [6]: 1 g
- KIDNEY_R [6]: 1.1 g
- KIDNEY_TOTAL [6]: 2.1 g
- KIDNEY_L [7]: 1.2 g
- KIDNEY_R [7]: 1.2 g
- KIDNEY_TOTAL [7]: 2.4 g
- KIDNEY_L [8]: 1.3 g
- KIDNEY_R [8]: 1.2 g
- KIDNEY_TOTAL [8]: 2.5 g
- LIVER [6]: 12.2 g
- LIVER [7]: 13.3 g
- LIVER [8]: 14.9 g
- ALP [6]: 845.6 IU/L
- ALT [6]: 33.2 IU/L
- AST [6]: 61.4 IU/L
- BUN [6]: 19.2 mg/dL
- CRE [6]: 0.6 mg/dL
- Ca [6]: 11.6 mg/dL
- Cl [6]: 106.8 meq/L
- DBIL [6]: 0 mg/dL
- GLC [6]: 187.8 mg/dL
- IP [6]: 7.7 mg/dL
- K [6]: 4.6 meq/L
- LDH [6]: 93.4 IU/L
- Na [6]: 138.4 meq/L
- PL [6]: 162 mg/dL
- RALB [6]: 4 g/dL
- TBIL [6]: 0.2 mg/dL
- TC [6]: 74.6 mg/dL
- TG [6]: 132 mg/dL
- TP [6]: 6.1 g/dL
- gamma-GTP [6]: 1.4 IU/L
- ALP [7]: 747.6 IU/L
- ALT [7]: 28.2 IU/L
- AST [7]: 63.2 IU/L
- BUN [7]: 20 mg/dL
- CRE [7]: 0.5 mg/dL
- Ca [7]: 11 mg/dL
- Cl [7]: 106.4 meq/L
- DBIL [7]: 0.01 mg/dL
- GLC [7]: 178.4 mg/dL
- IP [7]: 6.8 mg/dL
- K [7]: 4.7 meq/L
- LDH [7]: 89.6 IU/L
- Na [7]: 137.8 meq/L
- PL [7]: 144.8 mg/dL
- RALB [7]: 4 g/dL
- TBIL [7]: 0.3 mg/dL
- TC [7]: 62.2 mg/dL
- TG [7]: 144.2 mg/dL
- TP [7]: 6.3 g/dL
- gamma-GTP [7]: 1.8 IU/L
- ALP [8]: 579.4 IU/L
- ALT [8]: 62.6 IU/L
- AST [8]: 58.8 IU/L
- BUN [8]: 20.8 mg/dL
- CRE [8]: 0.6 mg/dL
- Ca [8]: 10.9 mg/dL
- Cl [8]: 107.6 meq/L
- DBIL [8]: 0.054 mg/dL
- GLC [8]: 178.6 mg/dL
- IP [8]: 6.7 mg/dL
- K [8]: 4.5 meq/L
- LDH [8]: 76.2 IU/L
- Na [8]: 139 meq/L
- PL [8]: 145 mg/dL
- RALB [8]: 4.1 g/dL
- TBIL [8]: 0.2 mg/dL
- TC [8]: 62.8 mg/dL
- TG [8]: 187.4 mg/dL
- TP [8]: 6.6 g/dL
- gamma-GTP [8]: 1.4 IU/L
